Assays:
[1] = tested on: three-dimensional kidney-like tissue (embryonic kidney cells, mesenchymal stem cells, proximal renal tubular cells, vascular endothelial cells); assay type: cell-based
Method: Embryonic kidney cells, mesenchymal stem cells, proximal renal tubular cells, and vascular endothelial cells were co-cultured for 24 hours to obtain a self-organized, three-dimensional kidney-like tissue (FIG. 9 (A)). This was exposed to cisplatin at a concentration of 5 μM, and spheres were collected after 3 hours and after 24 hours. After extraction of RNA, changes in gene expression were analyzed by the RT-PCR method. After the culture solution of the spheres was collected and cell components were separated by centrifugation, β2 microglobulin was measured with a “Lumipulse Presto β2-M” (produced by Fujirebio, Inc.) kit (FIG. 9 (B)). Further, changes in the shape of the spheres were imaged using an optical microscope (FIG. 9 (C)). […] Use of Microspheres as Kidney Model (Podocyte Injury)

[2] = tested on: kidney-like microspheres (HUVEC, hMSC, HEK, hMC, HK2); assay type: cell-based, human
Method: Kidney-like organoids were produced in vitro by co-culturing endothelial cells (HUVEC), mesenchymal stem cells (hMSC), and human embryonic kidney cells (HEK) with human mesangial cells (hMC) and human renal tubular cells (HK2). 5×10^4 hMSC, 2×10^5 HUVEC, 5×10^4 HEK, 5×10^4 hMC, and 5×10^4 HK 2 were suspended in 2 ml 10% FCS or MSCGM, and seeded in a MicroWell culture plate. After incubation in a 5% CO2 humidified incubator at 37° C. for 24 hours, formation of cell aggregates and microspheres was observed (FIG. 6). The resulting kidney-like microspheres maintained their spherical morphology for 20 days or longer. • 7. Analysis of Gene Expression
RT-PCR analysis was performed on mRNA of kidney-like microspheres using five types of cells. Total RNA was extracted from the spheres using a TRIzol reagent (Invitrogen), and reverse-transcribed with an oligo (dT) primer using a SuperScript First-Strand Synthesis kit (Invitrogen) to produce first-strand cDNA. Subsequently, PCR was performed to detect the expression of renal tubular cell-specific genes, renal tubular injury marker (epithelial-mesenchymal transition (EMT)) genes, and GAPDH. […] The influence of cisplatin was analyzed by adding cisplatin to the culture solution to a final concentration of 5 μM, and extracting RNA after 3 hours and after 24 hours for analysis. […]

[3] = tested on: three-dimensional kidney-like tissue (embryonic kidney cells, mesenchymal stem cells, vascular endothelial cells); assay: Kidney model (podocyte injury): three-dimensional kidney-like tissue exposed to puromycin, nephrin qRT-PCR; assay type: cell-based; settings: puromycin 50 μg/ml, 24 hours, qRT-PCR (FIG. 10)
Method: Embryonic kidney cells, mesenchymal stem cells, and vascular endothelial cells were co-cultured for 24 hours to obtain a self-organized, three-dimensional kidney-like tissue. The kidney-like tissue was exposed to puromycin at a concentration of 50 μg/ml. After 24 hours, spheres were collected. After extraction of RNA, changes in nephrin gene expression were analyzed by the qRT-PCR method (FIG. 10). […] Using this model allows for screening an effective drug for podocyte injury. • 12. Use as Pathophysiological Analysis System for Human Refractory Renal Disease

Compound: N.N.[Cl][Pt][Cl] [cisplatin]
- renal damage reflected by analysis results (gene expression, β2 microglobulin, sphere shape) [1]: renal tubular injury at the acute phase and podocyte injury at the chronic phase
- expression of genes constitutively expressed in podocytes [2]: reduction

Compound: CN(C)C(=N)N=C(N)N [metformin]
- abnormal changes in gene expression in acute kidney injury caused by cisplatin ([2]; pre-administration, 3 hours after cisplatin administration (left side of FIG. 7)): inhibited

Compound: COc1ccc(C[C@H](N)C(=O)N[C@H]2[C@@H](O)[C@H](n3cnc4c(N(C)C)ncnc43)O[C@@H]2CO)cc1 [puromycin]
- podocyte injury (changes in nephrin gene expression) [3]: podocyte injury model, which was conventionally prepared by using mice, can be reproduced

— patent US11685902B2, “Production method for kidney-like tissue” (Tokushima University, priority 2016, dated 2023)
